Experimental data as given in ChEMBL document CHEMBL5036349, “Development of potent dual PDK1/AurA kinase inhibitors for cancer therapy: Lead-optimization, structural insights, and ADME-Tox profile” (Eur J Med Chem, 2021).
Active and inactive are the calls of the source. No cut-off for these calls is given here.

Legend:
[1] = target: Aurora kinase A (Homo sapiens) (UniProt O14965); assay: Modulation in AURA protein in human SK-N-MC cell at 1 uM measured after 30 min by Western blot analysis; assay type: tissue-based
[2] = Cytotoxicity against human 6647 cells at 30 uM assessed as cell proliferation rate measured after 72 hrs by MTT assay relative to control; assay type: functional
SK-N-MC [3] = assay: Inhibition of human Akt in human SK-N-MC cell assessed as inhibition of Akt phosphorylation at 1 uM measured after 30 min by Western blot analysis; assay type: tissue-based
SK-N-MC [4] = assay: Upregulation of RB1 protein expression level in human SK-N-MC cell at 1 uM incubated for 2 hrs by western blot analysis; assay type: functional, tissue-based
SK-N-MC [5] = assay: Inhibition of MAPK signaling in human SK-N-MC cell assessed as decrease in phosphorylated ERK 1/2 at 1 uM measured after 30 min by Western blot analysis; assay type: tissue-based
[6] = Clearance in CD-1 mouse at 10 mg/kg iv measured by UPLC-MS/MS method; assay type: ADME, organism-based; conditions: in vivo
[7] = AUC in CD-1 mouse at 10 mg/kg iv measured by UPLC-MS/MS method; assay type: ADME, organism-based; set-up: dose 10 mg/kg; conditions: in vivo
HCT-116 = assay: Anticlonogenic activity against human HCT-116 cells assessed as reduction of cell survival at 0.5 to 20 uM measured after 10 days by SRB staining clonogenic survival assay; assay type: functional, cell-based; conditions: dose 0.5-20 µM, time 10.0 day
[8] = Drug uptake in human […] cell at 1.5 uM measured upto 120 min by UPLC-MS/MS analysis; assay type: ADME, tissue-based; conditions: 2 h
[9] = Half life in CD-1 mouse at 10 mg/kg iv measured by UPLC-MS/MS method; assay type: ADME, organism-based; conditions: in vivo
[10] = target: Ribosomal protein S6 kinase alpha-3 (Homo sapiens) (UniProt P51812); assay: Inhibition of human RSK2 in human SK-N-MC cell assessed as inhibition of RSK2 phosphorylation at 1 uM measured after 30 min by Western blot analysis; assay type: tissue-based
[11] = Volume of distribution in CD-1 mouse at 10 mg/kg iv measured by UPLC-MS/MS method; assay type: ADME, organism-based; conditions: in vivo

Chain of Ribosomal protein S6 kinase alpha-3 (Homo sapiens) (P51812 whole entry): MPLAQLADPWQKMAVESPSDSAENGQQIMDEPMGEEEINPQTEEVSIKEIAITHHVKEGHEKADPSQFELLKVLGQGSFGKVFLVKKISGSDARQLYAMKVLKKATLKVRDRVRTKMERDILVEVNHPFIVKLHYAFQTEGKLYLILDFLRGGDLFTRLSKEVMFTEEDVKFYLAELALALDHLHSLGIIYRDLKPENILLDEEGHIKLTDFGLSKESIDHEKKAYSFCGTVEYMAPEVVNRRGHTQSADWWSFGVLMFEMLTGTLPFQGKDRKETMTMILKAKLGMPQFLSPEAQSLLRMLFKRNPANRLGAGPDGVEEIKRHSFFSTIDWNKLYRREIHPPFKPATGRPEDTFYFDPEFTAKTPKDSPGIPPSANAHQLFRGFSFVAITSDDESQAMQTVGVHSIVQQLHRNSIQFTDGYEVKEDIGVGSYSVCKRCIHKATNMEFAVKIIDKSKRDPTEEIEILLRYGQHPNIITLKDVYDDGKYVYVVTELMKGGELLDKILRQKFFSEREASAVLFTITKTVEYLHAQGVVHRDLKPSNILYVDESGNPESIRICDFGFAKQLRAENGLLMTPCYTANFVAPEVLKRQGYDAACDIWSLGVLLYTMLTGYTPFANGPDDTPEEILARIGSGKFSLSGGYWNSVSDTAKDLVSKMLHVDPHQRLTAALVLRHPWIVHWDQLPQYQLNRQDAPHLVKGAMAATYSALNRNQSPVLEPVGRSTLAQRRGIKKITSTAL
Chain of Aurora kinase A (Homo sapiens) (O14965 whole entry): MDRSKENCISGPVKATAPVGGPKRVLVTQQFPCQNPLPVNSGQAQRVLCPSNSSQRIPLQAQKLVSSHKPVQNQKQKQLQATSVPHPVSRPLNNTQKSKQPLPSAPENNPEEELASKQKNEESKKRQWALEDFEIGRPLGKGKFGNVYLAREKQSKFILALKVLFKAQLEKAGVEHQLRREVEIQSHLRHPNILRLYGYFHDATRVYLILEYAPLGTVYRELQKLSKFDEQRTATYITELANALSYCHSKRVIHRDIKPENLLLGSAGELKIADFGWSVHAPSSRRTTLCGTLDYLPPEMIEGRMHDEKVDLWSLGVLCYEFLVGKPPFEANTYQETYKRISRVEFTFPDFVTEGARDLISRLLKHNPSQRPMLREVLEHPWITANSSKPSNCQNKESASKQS

## O=C1Nc2ccc(NC(=O)[C@H](NC(=O)c3cccn(Cc4ccc(F)c(F)c4)c3=O)c3ccccc3)cc2/C1=C/c1cnc[nH]1 (stereo in doubt)
[1]
  Activity: inactive
[2]
  Emax at 30 µM: 84%
SK-N-MC [3]
  inhibition: Active
SK-N-MC [4]
  Activity: Active
SK-N-MC [5]
  inhibition: Active
[6]
  CL: 75 mL/h
[7]
  AUC: 4220 ng·h/mL
HCT-116
  Activity: Dose-Dependent Effect
[8]
  Drug uptake: 800 ng/mL
[9]
  t1/2: 1.5 h
[10]
  inhibition: Active
[11]
  Vd: 0.37 L
